Data from ChEMBL document CHEMBL6083236, “Identification of novel diarylpyrimidine derivatives as potent HIV-1 non-nucleoside reverse transcriptase inhibitors against wild-type and K103N mutant viruses” (Eur J Med Chem, 2024).

Tests used:
[1] = test system: Human immunodeficiency virus 1; assay: Antiviral activity against HIV1 harboring Y188L mutant infected in human MT4 cells assessed as reduction in virus induced cytopathic effect incubated for 5 days by Spectrophotometric based MTT assay; assay type: functional, organism-based; settings: Human immunodeficiency virus 1, MT4, 120 h
[2] = test system: Human immunodeficiency virus 1; assay: Antiviral activity against HIV1 harboring Y181C mutant infected in human MT4 cells assessed as reduction in virus induced cytopathic effect incubated for 5 days by Spectrophotometric based MTT assay; assay type: functional, organism-based; settings: Human immunodeficiency virus 1, MT4, 120 h
[3] = Selectivity index, ratio of CC50 for cytotoxicity against human MT4 cells to EC50 for antiviral activity against HIV1 RES056 mutant infected in human MT4 cells; settings: MT4 cells
[4] = biological target: Human immunodeficiency virus type 1 reverse transcriptase (Human immunodeficiency virus 1, UniProt Q72547); assay: Inhibition of wild type HIV1 reverse transcriptase assessed as inhibition of biotin deoxyuridine triphosphate incorporation into cDNA using DIG-labelled dNTP preincubated with compound for 1 hr followed by substrate addition in presence of biotin-labeled dNTPs by ELISA analysis
[5] = test system: Human immunodeficiency virus 1; assay: Antiviral activity against HIV1 harboring L100I mutant infected in human MT4 cells assessed as reduction in virus induced cytopathic effect incubated for 5 days by Spectrophotometric based MTT assay; assay type: functional, organism-based; settings: Human immunodeficiency virus 1, MT4, 120 h
[6] = Selectivity index, ratio of CC50 for cytotoxicity against human MT4 cells to EC50 for antiviral activity against wild type HIV1 IIIB infected in human MT4 cells; settings: MT4 cells
[7] = test system: Human immunodeficiency virus 1; assay: Antiviral activity against HIV1 harboring RES056 mutant infected in human MT4 cells assessed as reduction in virus induced cytopathic effect incubated for 5 days by Spectrophotometric based MTT assay; assay type: functional, organism-based; settings: Human immunodeficiency virus 1, RES056, MT4, 120 h
[8] = test system: Human immunodeficiency virus 1; assay: Antiviral activity against HIV1 harboring K103 N mutant infected in human MT4 cells assessed as reduction in virus induced cytopathic effect incubated for 5 days by Spectrophotometric based MTT assay; assay type: functional, organism-based; settings: Human immunodeficiency virus 1, MT4, 120 h
[9] = test system: MT4; assay: Cytotoxicity against human MT4 cells assessed as reduction in cell viability incubated for 5 days by Spectrophotometric based MTT assay; assay type: functional; settings: MT4, 120 h, time 5 day
[10] = test system: Human immunodeficiency virus 1; assay: Antiviral activity against HIV1 harboring E138K mutant infected in human MT4 cells assessed as reduction in virus induced cytopathic effect incubated for 5 days by Spectrophotometric based MTT assay; assay type: functional, organism-based; settings: Human immunodeficiency virus 1, MT4, 120 h
[11] = test system: Human immunodeficiency virus 1; assay: Antiviral activity against HIV1 harboring F227L/V106A mutant infected in human MT4 cells assessed as reduction in virus induced cytopathic effect incubated for 5 days by Spectrophotometric based MTT assay; assay type: functional, organism-based; settings: Human immunodeficiency virus 1, MT4, 120 h
[12] = test system: Human immunodeficiency virus 1; assay: Antiviral activity against wild type HIV1 IIIB infected in human MT4 cells assessed as reduction in virus induced cytopathic effect incubated for 5 days by Spectrophotometric based MTT assay; assay type: functional, organism-based; settings: Human immunodeficiency virus 1, IIIB, MT4, 120 h

| SMILES | EC50 [1] | EC50 [2] | selectivity ratio [3] | IC50 [4] | EC50 [5] | selectivity ratio [6] | EC50 [7] | EC50 [8] | CC50 [9] | EC50 [10] | EC50 [11] | EC50 [12] |
| --- | --- | --- | --- | --- | --- | --- | --- | --- | --- | --- | --- | --- |
| Cc1cc(/C=C/C#N)cc(C)c1Oc1ccnc(Nc2ccc(N3CCN(S(C)(=O)=O)C3=O)c(C#N)c2)n1 | 1.77 µM | 0.014 µM | 192 | 0.24 µM | 0.006 µM | 29900 | 0.18 µM | 0.002 µM | 35.3 µM | 0.038 µM | 0.11 µM | 0.001 µM |
| Cc1cc(/C=C/C#N)cc(C)c1Oc1ccnc(Nc2ccc(N3CCN(S(N)(=O)=O)CC3)c(C#N)c2)n1 | 1.17 µM | 0.032 µM | 26 | 0.13 µM | 0.007 µM | 1540 | 0.23 µM | 0.003 µM | 5.88 µM | 0.029 µM | 0.013 µM | 0.004 µM |
